Measurements as given in ChEMBL document CHEMBL4627390, “Effect of Temperature on 1H NMR Spectra, Antitrypanosomal Activity, Conformational Analysis, and Molecular Docking of Curine Derivatives from Berberis brevissima” (2020).
Values after ≈ are worked out from the molar mass of the structure shown.

How the values were obtained:
Type in all cases: functional
[1] = tested on: Trypanosoma brucei brucei; experiment: Antitrypanosomal activity against Trypanosoma brucei brucei TC427 trypomastigotes assessed percent viability at 20 ug/ml after 24 hrs by AlamarBlue assay relative to DMSO
[2] = tested on: Trypanosoma brucei brucei; experiment: Antitrypanosomal activity against Trypanosoma brucei brucei TC427 trypomastigotes after 24 hrs by AlamarBlue assay; conditions: TC427, 24 h
[3] = tested on: Trypanosoma brucei brucei; experiment: Antitrypanosomal activity against Trypanosoma brucei brucei

SMILES	Activity [1]	MIC [2]	MIC [3]
COc1cc2c3cc1Oc1cc(ccc1O)C[C@@H]1c4c(cc(OC)c(O)c4Oc4ccc(cc4)C[C@H]3N(C)CC2)CCN1C	1.9%	3.8 µM (≈ 2.26 µg/mL)	
COc1cc2c3cc1Oc1cc(ccc1O)C[C@@H]1c4c(cc(OC)c(OC)c4Oc4ccc(cc4)C[C@H]3N(C)CC2)CCN1C	1.6%	2.6 µM (≈ 1.58 µg/mL)	
COc1ccc2c(c1OC)C(C(Cl)(Cl)Cl)N1CCc3cc4c(cc3C1=C2)OCO4 (stereo not given)			27.6 µM (≈ 12.6 µg/mL)
COc1cc2c3cc1Oc1cc(ccc1OC(C)=O)C[C@@H]1c4c(cc(OC)c(OC)c4Oc4ccc(cc4)C[C@H]3N(C)CC2)CCN1C	1.4%	2.3 µM (≈ 1.5 µg/mL)	
COc1cc2c3cc1Oc1cc(cc([N+](=O)[O-])c1O)C[C@@H]1c4c(cc(OC)c(OC)c4Oc4ccc(cc4)C[C@H]3N(C)CC2)CCN1C	1.5%	2.2 µM (≈ 1.44 µg/mL)	
COc1ccc2cc3[n+](cc2c1OC)CCc1cc2c(cc1-3)OCO2 [BERBERINE]			74.4 µM
